# Results published in patent publication US12686690B2, “Macrocyclic urea orexin receptor agonists” (Merck Sharp & Dohme LLC, priority 2020, dated 2026).
# Target: T1, hOX2R (Homo sapiens, UniProt O43614)
# T1 construct: expressed in transfected cells; host or cells: CHO cells (G418 selection)
# T1 sequence (O43614 1-444): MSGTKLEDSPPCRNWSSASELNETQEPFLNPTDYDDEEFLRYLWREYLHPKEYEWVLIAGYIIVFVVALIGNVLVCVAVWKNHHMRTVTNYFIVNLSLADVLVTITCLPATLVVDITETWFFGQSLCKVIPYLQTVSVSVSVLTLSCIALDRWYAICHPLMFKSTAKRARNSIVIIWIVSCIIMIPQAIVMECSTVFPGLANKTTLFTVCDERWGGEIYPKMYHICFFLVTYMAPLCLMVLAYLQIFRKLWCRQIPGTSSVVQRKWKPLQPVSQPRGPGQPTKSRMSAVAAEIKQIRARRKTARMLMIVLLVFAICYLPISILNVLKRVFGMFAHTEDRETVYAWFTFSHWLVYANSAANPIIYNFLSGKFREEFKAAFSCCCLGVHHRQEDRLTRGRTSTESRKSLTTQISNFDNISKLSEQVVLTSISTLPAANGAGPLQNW
# Experiment: hOX2R IPone assay (orexin receptor agonism)
# Format: cell-based
# Settings: IPone readout; for hOX2R_Ipone max %act: maximal activation; for EC50: orexin receptor agonist, read-out: hOX2R_IPone EC50
hOX2R_Ipone max %act,EC50,Structure (SMILES)
100.5%,5.1 nM,"CCN1C(=O)NCCCCCCOc2nc(cn3ccnc23)-c2cc(ncc2OC)[C@H]1C [Example 85, (12R)-13-ethyl-8-methoxy-12-methyl-12,13,16,17,18,19,20, 21-octahydro-6,23-(azeno)-11,7-(metheno)imidazo[2,1-c][1,4,10,13,15] oxatetraazacycloheni-cosin-14(15H)-one]"
101.2%,0.9 nM,"CCN1C(=O)N[C@@H](CCC(F)(F)F)CCCCCOc2nc(cn3ccnc23)-c2cc(nc3ccoc23)C1C (single isomer, unassigned) [Example 74B]"
101.1%,64.1 nM,"CCN1C(=O)N[C@@H](CCC(F)(F)F)CCCCCOc2nc(cn3ccnc23)C2=NC=C(O2)C1C (single isomer, unassigned) [Example 104B]"
100.1%,14.1 nM,"CCN1Cc2cc(c(OC)cn2)-c2cn3ccnc3c(n2)OCCCC[C@H](CCC(F)(F)F)NC1=O [Example 45, (16R)-13-ethyl-8-methoxy-16-(3,3,3-trifluoropropyl)-12,13,15,16,17,18,19,20-octahydro-14H-6,22-(azeno)-11,7-(metheno)imidazo[2,1-c][1,4,10,13,15]oxatetra-azacycloicosin-14-one]"
98.9%,0.85 nM,"CCN1C(=O)NC(CCOC(F)F)CCCCCOc2nc(cn3ccnc23)-c2cc(ncc2OC)[C@H]1C (stereo partly drawn) [Example 182, (3R,E)-7-(2-(difluoromethoxy)ethyl)-4-ethyl-25-methoxy-3-methyl-13-oxa-4,6-diaza-1(6,8)-imidazo[1,2-a]pyrazina-2(4,2)-pyridinacyclotridecaphan-5-one]"
99.4%,13.9 nM,"CCN1C(=O)NCC(C(F)(F)F)N(C)CCCOc2nc(cn3ccnc23)-c2cccc(c2)C1C [Example 26A, (3R,E)-4-ethyl-3,9-dimethyl-8-(trifluoromethyl)-13-oxa-4,6,9-triaza-1(6,8)-imidazo[1,2-a]pyrazina-2(1,3)-benzenacyclotridecaphan-5-one]"
99.26%,71.2 nM,"CCN1C(=O)NC(C#N)CCCCCOc2nc(cn3ccnc23)-c2cc(ncc2OC)[C@H]1C (single isomer, unassigned) [Example 224]"
101.7%,32 nM,"CCN1C(=O)NC(CCOC)CCCCCOc2nc(cn3ccnc23)-c2cc(ncc2OC)[C@H]1C (single isomer, unassigned) [Example 56A]"
94.4%,6.6 nM,"CCN1C(=O)NC(c2cscn2)CCCCCOc2nc(cn3ccnc23)-c2cccc(c2)[C@H]1C (single isomer, unassigned) [Example 19B]"
100.6%,6.6 nM,"CCN1C(=O)NC(CCC(F)(F)F)C(C)CCCOc2nc(cn3ccnc23)-c2cccc(c2)[C@H]1C (single isomer, unassigned) [Example 42A]"
93.31%,170 nM,"CCN1C(=O)N[C@@H](CCC(F)(F)F)CCS(=O)(=O)CCOc2nc(cn3ncnc23)-c2cc(ncc2OC)[C@H]1C [Example 135, (3R,7S,E)-4-ethyl-25-methoxy-3-methyl-7-(3,3,3-trifluoropropyl)-13-oxa-10-thia-4,6-diaza-1(6,8)-[1,2,4]triazolo[1,5-a]pyrazina-2(4,2)-pyridinacyclotridecaphan-5-one 10,10-dioxide]"
72.77%,541 nM,"CCN1C(=O)N[C@@H](CCC(F)(F)F)CCCCCOc2nc(cn3ccnc23)-c2cnnc(c2)[C@H]1C [Example 159, (3R,7R,E)-4-ethyl-3-methyl-7-(3,3,3-trifluoropropyl)-13-oxa-4,6-diaza-1(6,8)-imidazo[1,2-a]pyrazina-2(5,3)-pyridazinacyclotridecaphan-5-one]"
100.4%,9.8 nM,"CCN1C(=O)NC(CCC(F)(F)F)CCC(F)(F)CCOc2nc(cn3ccnc23)-c2cc(ncc2OC)[C@H]1C (single isomer, unassigned) [Example 121A]"
100.7%,1.21 nM,"CCN1C(=O)NC(C2CCCO2)CCCCCOc2nc(cn3ccnc23)-c2cc(ncc2OC)[C@H]1C (stereo partly drawn) [Example 193, (3R,E)-4-ethyl-25-methoxy-3-methyl-7-(tetrahydrofuran-2-yl)-13-oxa-4,6-diaza-1(6,8)-imidazo[1,2-a]pyrazina-2(4,2)-pyridinacyclotri-decaphan-5-one]"
99.85%,0.69 nM,"CCN1C(=O)NC(C2CCOC2)CCCCCOc2nc(cn3ccnc23)-c2cc(ncc2OC)[C@H]1C (stereo partly drawn) [Example 189, (3R,E)-4-ethyl-25-methoxy-3-methyl-7-(tetrahydrofuran-3-yl)-13-oxa-4,6-diaza-1(6,8)-imidazo[1,2-a]pyrazina-2(4,2)-pyridinacyclotridecaphan-5-one]"
98.8%,3.6 nM,"CCN1C(=O)NC(CCC(F)(F)F)C(C)CCCOc2nc(cn3ccnc23)-c2cccc(c2)[C@H]1C (single isomer, unassigned) [Example 42D]"
99.1%,1.5 nM,"CCN1C(=O)N[C@@H](CCC(C)(F)F)CCCCCOc2nc(cn3ccnc23)-c2ccnc(c2)[C@H]1C [Example 84, (12R,16R)-16-(3,3-difluorobutyl)-13-ethyl-12-methyl-12, 13,16,17,18,19,20,21-octahydro-6,23-(azeno)-11,7-(metheno)imidazo[2,1-c][1,4,10,13,15] oxatetraazacycloheni-cosin-14(15H)-one]"
100.8%,101 nM,"CCN1C(=O)N[C@@H](CCC(F)(F)F)CCCCCOc2nc(cn3ccnc23)-c2cccc(n2)C1C (stereo partly drawn) [Example 90, (16R)-13-ethyl-12-methyl-16-(3,3,3-trifluoropropyl)-12,13,16,17,18,19,20, 21-octahydro-6,23:11,7-di(azeno) imidazo[2,1-c][1,4, 13,15]oxatriazacyclo-henicosin-14(15H)-one]"
101.4%,6.09 nM,"CCN1C(=O)N[C@@H](CCC(F)(F)F)CCCCOCc2nc(cn3ccnc23)-c2cc(ncc2OC)[C@H]1C [Example 144, (3R,7R,E)-4-ethyl-25-methoxy-3-methyl-7-(3,3,3-trifluoropropyl)-12-oxa-4,6-diaza-1(6,8)-imidazo[1,2-a]pyrazina-2(4,2)-pyridinacyclotridecaphan-5-one]"
103.5%,11.9 nM,"CCN1C(=O)NC(CCC(F)(F)F)CCOCCOc2nc(cn3ccnc23)-c2cc(ncc2OC)[C@H]1C (single isomer, unassigned) [Example 6A]"
97.7%,60.5 nM,"CCN1C(=O)N[C@@H](C(F)(F)F)CCCCOc2nc(cn3ccnc23)-c2cc(ncc2OC)C1C(F)(F)F (single isomer, unassigned) [Example 39A]"
98.7%,0.8 nM,"CCN1C(=O)N[C@@H](CCC(F)(F)F)CCCCCOc2cc(cn3ccnc23)-c2nc(ccc2OC)[C@H]1C [Example 50, (3R,7R,E)-4-ethyl-23-methoxy-3-methyl-7-(3,3,3-trifluoropropyl)-13-oxa-4,6-diaza-1(6,8)-imidazo[1,2-a]pyridina-2(2,6)-pyridinacyclotridecaphan-5-one]"
104.4%,10.9 nM,"CCN1C(=O)N[C@@H](CCC(F)(F)F)C/C=C/CCOc2nc(cc3cccnc23)-c2cc(ncc2OC)[C@H]1C [Example 163, (3R,7S,E)-4-ethyl-25-methoxy-3-methyl-7-(3,3,3-trifluoropropyl)-13-oxa-4,6-diaza-1(6,8)-naphthyridina-2(4,2)-pyridinacyclotridecaphan-9-en-5-one]"
100.5%,4.2 nM,"CCN1C(=O)NC(CCC(C)(C)F)CCCCCOc2nc(cn3ccnc23)-c2cc(ncc2OC)[C@H]1C (single isomer, unassigned) [Example 71A]"

Structure (SMILES),hOX2R_Ipone max %act,EC50
"CCN1C(=O)NC(c2ccon2)CCCCCOc2nc(cn3ccnc23)-c2cccc(c2)[C@H]1C (mixture of isomers) [Example 20, (12R)-13-ethyl-12-methyl-16-(1,2-oxazol-3-yl)-12,13,16,17,18,19, 20,21-octahydro-6,23-(azeno)-11,7-(metheno) imidazo[2,1-c][1,4,13,15]oxa-triazacyclohenicosin-14(15H)-one]",98.31%,9.5 nM
"CCN1CCCOc2nc(cn3ccnc23)-c2cccc(c2)[C@@H](C)N(CC)C(=O)NCC1 [Example 15, (12R)-13,18-diethyl-12-methyl-12,13,16, 17,18,19,20,21-octahydro-6,23-(azeno)-11,7-(metheno) imidazo[2,1-c][1,4,13,15,18]oxa-tetraazacyclo-henicosin-14(15H)-one]",96.2%,1180 nM
"CCN1C(=O)NC(CCC(C)(F)F)CCCCCOc2nc(c(C)n3ncnc23)-c2cc(ncc2OC)C1C [Example 172, (3R,7R,E)-7-(3,3-difluorobutyl)-4-ethyl-25-methoxy-15,3-dimethyl-13-oxa-4,6-diaza-1(6,8)-[1,2,4]triazolo[1,5-a]pyrazina-2(4,2)-pyridinacyclotridecaphan-5-one]",101%,7.2 nM
"CCN1C(=O)NCCOCCCOc2nc(cn3ccnc23)-c2cccc(c2)[C@H]1C [Example 17, (12R)-13-ethyl-12-methyl-12,13, 16,17,20,21-hexahydro-19H-6,23-(azeno)-11,7-(metheno) imidazo[1,2-o][1, 18,4,6,15]dioxa-triazacyclohenicosin-14(15H)-one]",99.6%,19.4 nM
